Experimental findings from patent publication US20250129104A1, “7H-PYRROLO[2,3-D]PYRIMIDINES AND PREPARATION AND USES THEREOF” (BioSplice Therapeutics, Inc., priority 2021, published 2025) are described below.

SMILES strings stand for the structures.

The assay deals with recombinant DYRK1A kinase (Homo sapiens (Human), UniProt Q13627). Briefly: DYRK1A kinase assay (Ser/Thr 18 peptide Z-lyte FRET assay). The class given is biochemical. The settings on record: DYRK1A kinase activity; 15 μM ATP, 1 h room temperature; method text calls the value IC50. The protocol: Representative compounds were screened using the assay procedure for DYRK1A kinase activity as described below.
Each compound was dissolved in DMSO as a 10 mM stock and used to prepare compound source plates. Serial dilution (1:3, 11-point dose-response curves from 10 μM to 0.00016 μM) and compound transfer was performed using the ECHO 550 (Labcyte, Sunnyvale, CA) into 1536-well black-walled round bottom plates (Corning).
The DYRK1A kinase assay was run using the Ser/Thr 18 peptide Z-lyte assay kit according to manufacturer's instructions (Life Technologies—a Division of Thermo-Fisher). This is a non-radioactive assay using fluorescence resonance energy transfer (FRET) between coumarin and fluorescein to detect kinase activity which is represented as a ratio of coumarin emission/fluorescein emission.
Briefly, recombinant DYRK1A kinase, ATP and Ser/Thr peptide 18 were prepared in 1× Kinase buffer to final concentrations of 0.25 μg/mL, 15 μM, and 4 μM respectively. The mixture was allowed to incubate with the representative compounds for one hour at room temperature. All reactions were performed in duplicate. Unphosphorylated (“0% Control”) and phosphorylated (“100% control”) forms of Ser/Thr 18 served as control reactions. Additionally, an 11-point dose-response curve of Staurosporine (1 uM top) was run to serve as a positive compound control.
After incubation, Development Reagent A was diluted in Development Buffer then added to the reaction and allowed to further incubate for one hour at room temperature. The plate was read at Ex 400 Em […] to detect the coumarin signal and Ex 400 Em 520 to measure the signal (EnVision Multilabel Plate Reader, PerkinElmer).
The Emission ratio (Em) was calculated as a ratio of the coumarin (C) emission signal (at 445 nm)/Fluorescein (F) emission signal (at 520 nm). The percent phosphorylation was then calculated using the following formula: [1−((Em ratio×F100%)−C100%)/((C0%−C100%)+(Em ratio×(F100%−F0%)))]. Dose-response curves were generated, and inhibitory concentration (IC50) values were calculated using non-linear regression curve fit in the Dotmatics' Studies Software (Bishops Stortford, UK).
For `FC(F)(CNc1ncc2c(-c3ccc4ncnn4c3)c[nH]c2n1)C1CC1` [Compound 743, 5-([1,2,4]Triazolo[1,5-a]pyridin-6-yl)-N-(2-cyclopropyl-2,2-difluoroethyl)-7H-pyrrolo[2,3-d]pyrimidin-2-amine], the EC50 (usually the concentration that produces a half-maximal response) came out at 1.9 nM.
As to `CN1CCN(c2cc(Nc3ncc4c(-c5ccc6ncnn6c5)c[nH]c4n3)ccn2)CC1` [Compound 755, 5-([1,2,4]Triazolo[1,5-a]pyridin-6-yl)-N-(2-(4-methylpiperazin-1-yl)pyridin-4-yl)-7H-pyrrolo[2,3-d]pyrimidin-2-amine], the EC50 came out at 4.5 nM.
As for `CC(C)(F)CNc1ncc2c(-c3cc(F)c4ncnn4c3)c[nH]c2n1` [Compound 774, N-(2-Fluoro-2-methylpropyl)-5-(8-fluoro-[1,2,4]triazolo[1,5-a]pyridin-6-yl)-7H-pyrrolo[2,3-d]pyrimidin-2-amine], the EC50 stood at 76.3 nM.
Turning to `CC(C)Nc1ncc2c(-c3ccn4ncnc4c3)c[nH]c2n1` [Compound 804, 5-([1,2,4]Triazolo[1,5-a]pyridin-7-yl)-N-isopropyl-7H-pyrrolo[2,3-d]pyrimidin-2-amine], the EC50 was 72.1 nM.
`C[C@@H](Nc1ncc2c(-c3ccn4ncnc4c3)c[nH]c2n1)C(F)(F)F` [Compound 806, (R)-5-([1,2,4]Triazolo[1,5-a]pyridin-7-yl)-N-(1,1,1-trifluoropropan-2-yl)-7H-pyrrolo[2,3-d]pyrimidin-2-amine]: the EC50 was determined as 18.8 nM.
For the molecule `C[C@H](Nc1ncc2c(-c3ccn4ncnc4c3)c[nH]c2n1)C(F)(F)F` [Compound 807, (S)-5-([1,2,4]Triazolo[1,5-a]pyridin-7-yl)-N-(1,1,1-trifluoropropan-2-yl)-7H-pyrrolo[2,3-d]pyrimidin-2-amine], the EC50 was 165 nM.
Regarding `CN1CCN(c2ccc(CNc3ncc4c(-c5ccn6ncnc6c5)c[nH]c4n3)cn2)CC1` [Compound 808, 5-([1,2,4]Triazolo[1,5-a]pyridin-7-yl)-N-((6-(4-methylpiperazin-1-yl)pyridin-3-yl)methyl)-7H-pyrrolo[2,3-d]pyrimidin-2-amine], the EC50 was 52.3 nM.
As to `CC(C)Cc1ncc2c(-c3ccc4nnn(C)c4c3)c[nH]c2n1` [Compound 810, 6-(2-Isobutyl-7H-pyrrolo[2,3-d]pyrimidin-5-yl)-1-methyl-1H-benzo[d][1,2,3]triazole], the EC50 worked out at 66 nM.
In the case of `Cn1nnc2ccc(-c3c[nH]c4nc(CCC(F)(F)F)ncc34)cc21` [Compound 811, 1-Methyl-6-(2-(3,3,3-trifluoropropyl)-7H-pyrrolo[2,3-d]pyrimidin-5-yl)-1H-benzo[d][1,2,3]triazole] it was 33.3 nM.
For the molecule `Cn1nnc2ccc(-c3c[nH]c4nc(NCC(C)(C)F)ncc34)cc21` [Compound 822, N-(2-Fluoro-2-methylpropyl)-5-(1-methyl-1H-benzo[d][1,2,3]triazol-6-yl)-7H-pyrrolo[2,3-d]pyrimidin-2-amine], the EC50 worked out at 2.9 nM.
Turning to `Cn1nnc2ccc(-c3c[nH]c4nc(NCC(C)(F)F)ncc34)cc21` [Compound 823, N-(2,2-Difluoropropyl)-5-(1-methyl-1H-benzo[d][1,2,3]triazol-6-yl)-7H-pyrrolo[2,3-d]pyrimidin-2-amine], the EC50 stood at 6 nM.
With `Cn1nnc2ccc(-c3c[nH]c4nc(NCC(F)(F)F)ncc34)cc21` [Compound 824, 5-(1-Methyl-1H-benzo[d][1,2,3]triazol-6-yl)-N-(2,2,2-trifluoroethyl)-7H-pyrrolo[2,3-d]pyrimidin-2-amine], the EC50 was found to be 3.4 nM.
For the molecule `C[C@@H](Nc1ncc2c(-c3ccc4nnn(C)c4c3)c[nH]c2n1)C(F)(F)F` [Compound 825, (R)-5-(1-Methyl-1H-benzo[d][1,2,3]triazol-6-yl)-N-(1,1,1-trifluoropropan-2-yl)-7H-pyrrolo[2,3-d]pyrimidin-2-amine], the EC50 was found to be 4.8 nM.
In the case of `C[C@H](Nc1ncc2c(-c3ccc4nnn(C)c4c3)c[nH]c2n1)C(F)(F)F` [Compound 826, (S)-5-(1-Methyl-1H-benzo[d][1,2,3]triazol-6-yl)-N-(1,1,1-trifluoropropan-2-yl)-7H-pyrrolo[2,3-d]pyrimidin-2-amine] it was 43 nM.
In the case of `CN1CCC(Nc2ncc3c(-c4ccc5nnn(C)c5c4)c[nH]c3n2)CC1` [Compound 841, 5-(1-Methyl-1H-benzo[d][1,2,3]triazol-6-yl)-N-(1-methylpiperidin-4-yl)-7H-pyrrolo[2,3-d]pyrimidin-2-amine], the EC50 was 13.6 nM.
In the case of `Cn1nnc2ccc(-c3c[nH]c4nc(NC5CCOCC5)ncc34)cc21` [Compound 843, 5-(1-Methyl-1H-benzo[d][1,2,3]triazol-6-yl)-N-(tetrahydro-2H-pyran-4-yl)-7H-pyrrolo[2,3-d]pyrimidin-2-amine] it was 23.2 nM; in that of `CCn1nnc2ccc(-c3c[nH]c4nc(NCC(C)(C)F)ncc34)cc21` [Compound 865, 5-(1-Ethyl-1H-benzo[d][1,2,3]triazol-6-yl)-N-(2-fluoro-2-methylpropyl)-7H-pyrrolo[2,3-d]pyrimidin-2-amine], 7.3 nM; in that of `Cc1nnc2ccc(-c3c[nH]c4nc(NCC(C)(C)F)ncc34)cn12` [Compound 895, N-(2-Fluoro-2-methylpropyl)-5-(3-methyl-[1,2,4]triazolo[4,3-a]pyridin-6-yl)-7H-pyrrolo[2,3-d]pyrimidin-2-amine], 83.2 nM.
For the molecule `CC(C)Cc1ncc2c(-c3ccc4nccn4n3)c[nH]c2n1` [Compound 897, 5-(Imidazo[1,2-b]pyridazin-6-yl)-2-isobutyl-7H-pyrrolo[2,3-d]pyrimidine], the concentration giving a half-maximal response (EC50) amounted to 66.8 nM.
For `CC(C)(C)CNc1ncc2c(-c3ccc4nccn4n3)c[nH]c2n1` [Compound 907, 5-(Imidazo[1,2-b]pyridazin-6-yl)-N-neopentyl-7H-pyrrolo[2,3-d]pyrimidin-2-amine], the EC50 is 8.8 nM.
For `FC(F)(F)CNc1ncc2c(-c3ccc4nccn4n3)c[nH]c2n1` [Compound 911, 5-(Imidazo[1,2-b]pyridazin-6-yl)-N-(2,2,2-trifluoroethyl)-7H-pyrrolo[2,3-d]pyrimidin-2-amine], the EC50 stood at 9.6 nM.
As for `C[C@@H](Nc1ncc2c(-c3ccc4nccn4n3)c[nH]c2n1)C1CC1` [Compound 918, (R)—N-(1-Cyclopropylethyl)-5-(imidazo[1,2-b]pyridazin-6-yl)-7H-pyrrolo [2,3-d]pyrimidin-2-amine], the EC50 is 3.4 nM.
Turning to `c1cn2nc(-c3c[nH]c4nc(NC5CCOCC5)ncc34)ccc2n1` [Compound 930, 5-(Imidazo[1,2-b]pyridazin-6-yl)-N-(tetrahydro-2H-pyran-4-yl)-7H-pyrrolo[2,3-d]pyrimidin-2-amine], the EC50 is 4 nM.
With `CC(C)(F)CNc1ncc2c(-c3ccc4ncc(Cl)n4n3)c[nH]c2n1` [Compound 952, 5-(3-chloroimidazo[1,2-b]pyridazin-6-yl)-N-(2-fluoro-2-methylpropyl)-7H-pyrrolo[2,3-d]pyrimidin-2-amine], the EC50 came out at 2.7 nM.
`Cc1cn2nc(-c3c[nH]c4nc(NC(C)C)ncc34)ccc2n1` [Compound 991, N-Isopropyl-5-(2-methylimidazo[1,2-b]pyridazin-6-yl)-7H-pyrrolo[2,3-d]pyrimidin-2-amine]: the EC50 turned out to be 25.7 nM.
Turning to `Cc1cn2nc(-c3c[nH]c4nc(NCC(C)(C)F)ncc34)ccc2n1` [Compound 995, N-(2-Fluoro-2-methylpropyl)-5-(2-methylimidazo[1,2-b]pyridazin-6-yl)-7H-pyrrolo[2,3-d]pyrimidin-2-amine], the EC50 was found to be 9.3 nM.
